Measurements reported in patent US20260232767A1, “INTERLEUKIN-23 RECEPTOR ANTAGONIST PEPTIDES FOR USE IN THE TREATMENT OF PSORIASIS” (Janssen Pharmaceutica NV, priority 2023, published 2026).

Tested on: subjects with moderate-to-severe plaque psoriasis
Assay: IGA score, Example 1
Format: in vivo, human
Conditions: Week 16
Procedure: The Investigator's Global Assessment (IGA) documents the investigator's assessment of the participant's psoriasis at a given time point. Overall lesions are graded for induration, erythema, and scaling. The participant's psoriasis is assessed as cleared (0), minimal (1), mild (2), moderate (3), or severe (4).
This was a randomized, double-blind, placebo-controlled, dose-ranging, parallel group, multicenter, interventional study in subjects with moderate-to-severe plaque psoriasis. A target of 240 subjects were enrolled in this study with 40 subjects planned per intervention group.
Clinician-reported outcomes including Psoriasis Area and Severity Index (PASI), Body Surface Area (BSA), Investigator's Global Assessment (IGA), Nail Psoriasis Area and Severity Index (NAPSI), Fingernail Physician's Global Assessment (f-PGA), Static Physician's Global Assessment of Genitalia (s-PGA-G), Physician's Global Assessment of Hands and/or Feet (hf-PGA), and Scalp Specific Investigator Global Assessment (ss-IGA) were obtained at Week 0, 8, and 16. PASI and IGA were also obtained at Weeks 1, 2, 4, and 12, and at Week 20, four weeks after the administration of the tablets has stopped.

[1] = 25 mg BID, peak plasma conc. <Q1, N=2
[2] = 25 mg BID, peak plasma conc. Q1 to <Q2, N=2
[3] = 25 mg BID, peak plasma conc. Q2 to <Q3, N=2
[4] = 25 mg BID, peak plasma conc. ≥Q3, N=2
[5] = 25 mg BID, trough plasma conc <Q1
[6] = 25 mg BID, trough plasma conc Q1 to <Q2
[7] = 25 mg BID, trough plasma conc Q2 to <Q3
[8] = 25 mg BID, trough plasma conc ≥Q3
[9] = 25 mg QD, peak plasma conc. <Q1, N=2
[10] = 25 mg QD, peak plasma conc. Q1 to <Q2, N=2
[11] = 25 mg QD, peak plasma conc. Q2 to <Q3, N=2
[12] = 25 mg QD, peak plasma conc. ≥Q3, N=2
[13] = 25 mg QD, trough plasma conc <Q1
[14] = 25 mg QD, trough plasma conc Q1 to <Q2
[15] = 25 mg QD, trough plasma conc Q2 to <Q3
[16] = 25 mg QD, trough plasma conc ≥Q3
[17] = 50 mg QD, peak plasma conc. <Q1, N=2
[18] = 50 mg QD, peak plasma conc. Q1 to <Q2, N=2
[19] = 50 mg QD, peak plasma conc. Q2 to <Q3, N=2
[20] = 50 mg QD, peak plasma conc. ≥Q3, N=2
[21] = 50 mg QD, trough plasma conc <Q1
[22] = 50 mg QD, trough plasma conc Q1 to <Q2
[23] = 50 mg QD, trough plasma conc Q2 to <Q3
[24] = 50 mg QD, trough plasma conc ≥Q3
[25] = 100 mg BID, peak plasma conc. <Q1, N=2
[26] = 100 mg BID, peak plasma conc. Q1 to <Q2, N=3
[27] = 100 mg BID, peak plasma conc. Q2 to <Q3, N=2
[28] = 100 mg BID, peak plasma conc. ≥Q3, N=3
[29] = 100 mg BID, trough plasma conc <Q1

## CC(=O)NCCCC[C@@H]1NC(=O)[C@H](Cc2c[nH]c3c(C)cccc23)NC(=O)[C@H]([C@@H](C)O)NC(=O)[C@H](CC(N)=O)NC(=O)[C@@H](NC(C)=O)C(C)(C)SSC(C)(C)[C@@H](C(=O)N[C@@H](Cc2ccc(OCCN)cc2)C(=O)N[C@@H](Cc2ccc3ccccc3c2)C(=O)NC2(C(=O)N[C@@H](CCC(=O)O)C(=O)N[C@@H](CC(N)=O)C(=O)N[C@@H](Cc3cccnc3)C(=O)N(C)CC(N)=O)CCOCC2)NC1=O [IL-23 receptor antagonist peptide, Ac-[Pen]*-N-T-[W(7-Me)]-[Lys(Ac)]-[Pen]*-Phe[4-(2-aminoethoxy)]-[2-Nal]-[THP]-E-N-[3-Pal]-Sarc-NH2 (*[Pen]-[Pen]* formdisulfidebond)]
25 mg BID
  IGA 0 or 1 treatment difference vs placebo: 39.5% (21.7%,
  IGA 0 treatment difference vs placebo: 14.6% (4.0%,
  Subjects achieving IGA Score = 0: (14.6%)
  Subjects achieving IGA Score = 0 or 1: (51.2%)
25 mg BID, N=41
  IGA score 0, %: (14.6) %
  IGA score 0/1, %: (51.2) %
[1]
  IGA Score = 0, n subjects: 0
  IGA Score = 0 or 1, n subjects: 0
[2]
  IGA Score = 0, n subjects: 0
  IGA Score = 0 or 1, % subjects: (50.0%)
  IGA Score = 0 or 1, n subjects: 1
[3]
  IGA Score = 0, n subjects: 0
  IGA Score = 0 or 1, % subjects: (50.0%)
  IGA Score = 0 or 1, n subjects: 1
[4]
  IGA Score = 0, % subjects: (50.0%)
  IGA Score = 0, n subjects: 1
  IGA Score = 0 or 1, % subjects: (50.0%)
  IGA Score = 0 or 1, n subjects: 1
[5]
  IGA Score = 0, subjects: 2 (33.3%)
  IGA Score = 0 or 1, subjects: 4 (66.7%)
[6]
  IGA Score = 0, subjects: 1 (16.7%)
  IGA Score = 0 or 1, subjects: 1 (16.7%)
[7]
  IGA Score = 0, subjects: 0
  IGA Score = 0 or 1, subjects: 4 (66.7%)
[8]
  IGA Score = 0, subjects: 2 (33.3%)
  IGA Score = 0 or 1, subjects: 100.0%
25 mg QD
  IGA 0 or 1 treatment difference vs placebo: 27.9% (10.5%,
  IGA 0 treatment difference vs placebo: 16.3% (5.3%,
  Subjects achieving IGA Score = 0: (16.3%)
  Subjects achieving IGA Score = 0 or 1: (39.5%)
25 mg QD, N=43
  IGA score 0, %: (16.3) %
  IGA score 0/1, %: (39.5) %
[9]
  IGA Score = 0, n subjects: 0
  IGA Score = 0 or 1, % subjects: (50.0%)
  IGA Score = 0 or 1, n subjects: 1
[10]
  IGA Score = 0, n subjects: 0
  IGA Score = 0 or 1, % subjects: (50.0%)
  IGA Score = 0 or 1, n subjects: 1
[11]
  IGA Score = 0, % subjects: (50.0%)
  IGA Score = 0, n subjects: 1
  IGA Score = 0 or 1, % subjects: (50.0%)
  IGA Score = 0 or 1, n subjects: 1
[12]
  IGA Score = 0, n subjects: 0
  IGA Score = 0 or 1, % subjects: (50.0%)
  IGA Score = 0 or 1, n subjects: 1
[13]
  IGA Score = 0, subjects: 1 (20.0%)
  IGA Score = 0 or 1, subjects: 2 (40.0%)
[14]
  IGA Score = 0, subjects: 2 (33.3%)
  IGA Score = 0 or 1, subjects: 3 (50.0%)
[15]
  IGA Score = 0, subjects: 0
  IGA Score = 0 or 1, subjects: 1 (20.0%)
[16]
  IGA Score = 0, subjects: 1 (16.7%)
  IGA Score = 0 or 1, subjects: 4 (66.7%)
50 mg QD
  IGA 0 or 1 treatment difference vs placebo: 46.5% (29.1%,
  IGA 0 treatment difference vs placebo: 34.9% (20.8%,
  Subjects achieving IGA Score = 0: 15 (34.9%)
  Subjects achieving IGA Score = 0 or 1: 25 (58.1%)
50 mg QD, N=43
  IGA score 0, %: 34.9%
  IGA score 0/1, %: 58.1%
[17]
  IGA Score = 0, n subjects: 0
  IGA Score = 0 or 1, n subjects: 0
[18]
  IGA Score = 0, % subjects: (100.0%)
  IGA Score = 0, n subjects: 2
  IGA Score = 0 or 1, % subjects: (100.0%)
  IGA Score = 0 or 1, n subjects: 2
[19]
  IGA Score = 0, n subjects: 0
  IGA Score = 0 or 1, % subjects: (100.0%)
  IGA Score = 0 or 1, n subjects: 2
[20]
  IGA Score = 0, n subjects: 0
  IGA Score = 0 or 1, % subjects: (100.0%)
  IGA Score = 0 or 1, n subjects: 2
[21]
  IGA Score = 0, subjects: 1 (20.0%)
  IGA Score = 0 or 1, subjects: 2 (40.0%)
[22]
  IGA Score = 0, subjects: 3 (60.0%)
  IGA Score = 0 or 1, subjects: 4 (80.0%)
[23]
  IGA Score = 0, subjects: 2 (40.0%)
  IGA Score = 0 or 1, subjects: 2 (40.0%)
[24]
  IGA Score = 0, subjects: 2 (40.0%)
  IGA Score = 0 or 1, subjects: 3 (60.0%)
100 mg BID
  IGA 0 or 1 treatment difference vs placebo: 52.8% (36.0%,
  IGA 0 treatment difference vs placebo: 45.3% (30.6%,
  Subjects achieving IGA Score = 0: (45.2%)
  Subjects achieving IGA Score = 0 or 1: (64.3%)
100 mg BID, N=42
  IGA score 0, %: 45.2%
  IGA score 0/1, %: 64.3%
[25]
  IGA Score = 0, % subjects: (50.0%)
  IGA Score = 0, n subjects: 1
  IGA Score = 0 or 1, % subjects: (100.0%)
  IGA Score = 0 or 1, n subjects: 2
[26]
  IGA Score = 0, % subjects: (66.7%)
  IGA Score = 0, n subjects: 2
  IGA Score = 0 or 1, % subjects: (66.7%)
  IGA Score = 0 or 1, n subjects: 2
[27]
  IGA Score = 0, % subjects: (50.0%)
  IGA Score = 0, n subjects: 1
  IGA Score = 0 or 1, % subjects: (50.0%)
  IGA Score = 0 or 1, n subjects: 1
[28]
  IGA Score = 0, % subjects: (66.7%)
  IGA Score = 0, n subjects: 2
  IGA Score = 0 or 1, % subjects: (100.0%)
  IGA Score = 0 or 1, n subjects: 3
[29]
  IGA Score = 0, subjects: 1 (25.0%)
  IGA Score = 0 or 1, subjects: 3 (75.0%)
100 mg BID, trough plasma conc Q1 to <Q2
  IGA Score = 0, subjects: 2 (40.0%)
